ChEMBL document CHEMBL6078658, “Use of imidazo[1,5-a]quinoline scaffold as the pharmacophore in the design of bivalent ligands of central benzodiazepine receptors” (Bioorg Med Chem, 2025)

What was measured:
[1] = target: T1, GABA-A receptor; alpha-2/beta-3/gamma-2 (Homo sapiens, UniProt P18507+P28472+P47869); assay: Displacement of [3H]flumazenil from human recombinant alpha2-beta3-gamma2 GABAA receptors expressed in mouse LTK- cells incubated for 1 hr by liquid scintillation counter analysis; type: cell-based
T1 sequence (P18507 whole entry): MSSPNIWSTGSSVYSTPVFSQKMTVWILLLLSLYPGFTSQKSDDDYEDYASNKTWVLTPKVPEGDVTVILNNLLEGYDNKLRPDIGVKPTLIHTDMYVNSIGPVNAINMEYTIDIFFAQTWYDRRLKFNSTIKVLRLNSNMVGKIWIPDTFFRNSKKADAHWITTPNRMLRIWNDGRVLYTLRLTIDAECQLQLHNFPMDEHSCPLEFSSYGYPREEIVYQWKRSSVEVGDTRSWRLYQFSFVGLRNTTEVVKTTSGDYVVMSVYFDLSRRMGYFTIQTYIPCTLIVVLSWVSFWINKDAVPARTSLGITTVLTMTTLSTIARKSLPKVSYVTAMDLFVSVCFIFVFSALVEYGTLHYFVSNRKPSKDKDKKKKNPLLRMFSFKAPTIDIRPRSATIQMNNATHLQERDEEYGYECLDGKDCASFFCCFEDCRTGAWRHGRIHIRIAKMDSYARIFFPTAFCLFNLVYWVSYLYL
T1 sequence (P28472 whole entry): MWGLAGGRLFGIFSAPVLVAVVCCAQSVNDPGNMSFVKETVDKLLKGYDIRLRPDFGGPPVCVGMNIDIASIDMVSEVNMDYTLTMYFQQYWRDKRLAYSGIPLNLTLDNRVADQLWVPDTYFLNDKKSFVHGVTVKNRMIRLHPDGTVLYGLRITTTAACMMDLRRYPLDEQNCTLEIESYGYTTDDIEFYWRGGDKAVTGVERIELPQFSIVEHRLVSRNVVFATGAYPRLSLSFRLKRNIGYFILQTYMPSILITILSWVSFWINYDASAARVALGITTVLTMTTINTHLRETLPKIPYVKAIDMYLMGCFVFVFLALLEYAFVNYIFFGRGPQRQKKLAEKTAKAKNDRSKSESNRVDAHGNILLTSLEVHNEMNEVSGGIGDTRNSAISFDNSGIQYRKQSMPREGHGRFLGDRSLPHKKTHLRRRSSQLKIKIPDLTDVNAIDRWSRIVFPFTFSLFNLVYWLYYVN
T1 sequence (P47869 whole entry): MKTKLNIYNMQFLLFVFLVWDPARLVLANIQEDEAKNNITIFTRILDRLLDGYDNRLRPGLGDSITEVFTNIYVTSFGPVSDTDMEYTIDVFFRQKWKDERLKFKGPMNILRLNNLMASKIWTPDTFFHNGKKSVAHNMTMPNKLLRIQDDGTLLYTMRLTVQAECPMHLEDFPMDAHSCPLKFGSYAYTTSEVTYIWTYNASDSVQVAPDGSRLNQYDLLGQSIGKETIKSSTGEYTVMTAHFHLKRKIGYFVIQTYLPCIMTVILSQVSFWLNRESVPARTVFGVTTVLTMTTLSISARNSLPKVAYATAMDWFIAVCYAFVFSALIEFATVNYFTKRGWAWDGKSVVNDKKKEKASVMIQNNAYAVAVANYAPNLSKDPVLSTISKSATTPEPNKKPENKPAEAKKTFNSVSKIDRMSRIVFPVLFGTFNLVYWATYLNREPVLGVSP

[2] = Displacement of [3H]flumazenil from CBR at high affinity site extracted from cerebral cortex of CD-1 albino mouse incubated for 90 mins by liquid scintillation counter analysis; type: tissue-based
[3] = Displacement of [3H]flumazenil from CBR at low affinity site extracted from cerebral cortex of CD-1 albino mouse incubated for 90 mins by liquid scintillation counter analysis; type: tissue-based
[4] = target: T2, GABA-A receptor; alpha-1/beta-3/gamma-2 (Homo sapiens, UniProt P14867+P18507+P28472); assay: Displacement of [3H]flumazenil from human recombinant alpha1-beta3-gamma2 GABAA receptors expressed in mouse LTK- cells incubated for 1 hr by liquid scintillation counter analysis; type: cell-based
T2 sequence (P14867 whole entry): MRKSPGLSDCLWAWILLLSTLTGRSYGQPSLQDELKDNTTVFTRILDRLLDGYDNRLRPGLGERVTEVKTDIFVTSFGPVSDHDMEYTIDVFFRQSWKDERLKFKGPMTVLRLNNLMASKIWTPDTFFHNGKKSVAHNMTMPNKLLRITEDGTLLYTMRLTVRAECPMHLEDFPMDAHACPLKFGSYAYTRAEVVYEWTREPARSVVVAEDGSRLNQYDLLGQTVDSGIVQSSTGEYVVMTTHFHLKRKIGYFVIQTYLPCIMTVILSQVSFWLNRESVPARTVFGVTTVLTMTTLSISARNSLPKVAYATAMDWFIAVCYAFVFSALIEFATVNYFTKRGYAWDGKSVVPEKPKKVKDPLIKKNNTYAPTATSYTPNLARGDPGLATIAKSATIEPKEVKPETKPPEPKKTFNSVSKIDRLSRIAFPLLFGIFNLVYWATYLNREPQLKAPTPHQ
T2 sequence (P18507 whole entry): T1 sequence (P18507 whole entry)
T2 sequence (P28472 whole entry): T1 sequence (P28472 whole entry)

Mus musculus [5] = assay: Improvement in learning and memory in CD-1 mouse assessed as time taken for retention session at 20 mg/kg, po by passive avoidance test (reference value: 15.6 +/- 3.2 sec); type: functional
Mus musculus [6] = assay: Improvement in learning and memory in CD-1 mouse assessed as difference in time taken for training and retention session at 20 mg/kg, po by passive avoidance test (reference value: 76.8 sec); type: functional
Mus musculus [7] = assay: Myorelaxant effect in CD-1 mouse assessed as time taken for myorelaxation at 20 mg/kg, po measured immediately post-dose by rota rod test (reference value: 5.0 +/- 0.4 min); type: functional
Mus musculus [8] = assay: Anxiolytic activity in CD-1 mouse assessed as time in light at 20 mg/kg treated for 30 mins by light/dark box test (reference value: 112.1 +/- 10.9 sec); type: functional; settings: 0.5 h
Mus musculus [9] = assay: Improvement in learning and memory in CD-1 mouse assessed as time taken for training session at 20 mg/kg, po by passive avoidance test (reference value: 15.6 +/- 3.2 sec); type: functional
Mus musculus [10] = assay: Anticonvulsant activity in PTZ-treated CD-1 mouse assessed as time taken for death latency at 20 mg/kg pretreated for 30 mins followed by PTZ treatment measured for 30 mins post-PTZ dose (reference value: 28.4 +/- 4.8 min); type: functional; settings: 0.5 h
Mus musculus [11] = assay: Myorelaxant effect in CD-1 mouse assessed as time taken for myorelaxation at 20 mg/kg, po measured after 45 mins post-dose by rota rod test (reference value: 1.0 +/- 0.2 min); type: functional; settings: 0.75 h
Mus musculus [12] = assay: Myorelaxant effect in CD-1 mouse assessed as time taken for myorelaxation at 20 mg/kg, po measured after 15 mins post-dose by rota rod test (reference value: 3.1 +/- 0.4 min); type: functional; settings: 0.25 h
Mus musculus [13] = assay: Myorelaxant effect in CD-1 mouse assessed as time taken for myorelaxation at 20 mg/kg, po measured after 30 mins post-dose by rota rod test (reference value: 1.6 +/- 0.0 min); type: functional; settings: 0.5 h
Mus musculus [14] = assay: Anxiolytic activity in CD-1 mouse assessed as time in light at 10 mg/kg treated for 30 mins by light/dark box test (reference value: 112.1 +/- 10.9 sec); type: functional; settings: 0.5 h
Mus musculus [15] = assay: Anticonvulsant activity in PTZ-treated CD-1 mouse assessed as time taken for convulsion latency at 20 mg/kg pretreated for 30 mins followed by PTZ treatment measured for 30 mins post-PTZ dose (reference value: 19.3 +/- 4.1 min); type: functional; settings: 0.5 h
Mus musculus [16] = assay: Myorelaxant effect in CD-1 mouse assessed as time taken for myorelaxation at 20 mg/kg, po measured after 60 mins post-dose by rota rod test (reference value: 0.2 +/- 0.3 min); type: functional; settings: 1 h
[17] = Displacement of [3H]flumazenil from CBR extracted from cerebral cortex of CD-1 albino mouse incubated for 90 mins by liquid scintillation counter analysis; type: cell membranes, Membranes
Mus musculus [18] = assay: Improvement in learning and memory in CD-1 mouse assessed as time taken for retention session at 1 mg/kg, po by passive avoidance test (reference value: 15.6 +/- 3.2 sec); type: functional
Mus musculus [19] = assay: Improvement in learning and memory in CD-1 mouse assessed as difference in time taken for training and retention session at 1 mg/kg, po by passive avoidance test (reference value: 76.8 sec); type: functional
Mus musculus [20] = assay: Anxiolytic activity in CD-1 mouse assessed as time in light at 1 mg/kg treated for 30 mins by light/dark box test (reference value: 112.1 +/- 10.9 sec); type: functional; settings: 0.5 h
Mus musculus [21] = assay: Improvement in learning and memory in CD-1 mouse assessed as time taken for training session at 1 mg/kg, po by passive avoidance test (reference value: 15.6 +/- 3.2 sec); type: functional

In the case of `CCOC(=O)c1ncn2c1c(C)c(C(=O)NCCCCCCCCNC(=O)OC(C)(C)C)c1ccccc12`, the Ki [1] is reported as 42 nM, the Ki [2] is reported as 0.005 nM and the Ki [3] is reported as 51 nM. The Ki [4] was 39 nM.

Work on `CCOC(=O)c1ncn2c1c(C)c(C(=O)NCCCCCCNC(=O)c1c(C)c3c(C(=O)OCC)ncn3c3ccccc13)c1ccccc12` yielded a Time (Mus musculus [5]) of 86.1 s, a Time (Mus musculus [6]) of 70.8 s and a Time (Mus musculus [7]) of 4.9 min. For the same compound, the Time (Mus musculus [8]) was 166.2 s, the Ki [1] was 45 nM and the Time (Mus musculus [9]) was 15.3 s. For the same compound, the Time (Mus musculus [10]) was 40.5 min, the Time (Mus musculus [11]) was 0.7 min and the Ki [2] was 0.022 nM. It also gave a Time (Mus musculus [12]) of 3.2 min, a Time (Mus musculus [13]) of 1.9 min and a Ki [3] of 60 nM. The Time (Mus musculus [14]) was 114.3 s, the Time (Mus musculus [15]) was 22.8 min and the Time (Mus musculus [16]) was 0.1 min. The Ki [4] was 74 nM.

Work on `CCOC(=O)c1ncn2c1c(C)c(C(=O)NCCCCCCCNC(=O)OC(C)(C)C)c1ccccc12` yielded a Ki [1] of 33 nM, a Ki [2] of 61 nM and a Ki [3] of 6.4 nM. It also gave a Ki [4] of 31 nM.

With `CCOC(=O)c1ncn2c1c(C)c(C(=O)NCCCCCCCCNC(=O)c1c(C)c3c(C(=O)OCC)ncn3c3ccccc13)c1ccccc12` the Time (Mus musculus [5]) was 91.8 s, the Time (Mus musculus [6]) was 77 s and the Time (Mus musculus [7]) was 4.5 min. For the same compound, the Time (Mus musculus [8]) was 173.4 s, the Ki [1] was 56 nM and the Time (Mus musculus [9]) was 14.8 s. The Time (Mus musculus [10]) was 41.8 min, the Time (Mus musculus [11]) was 0.7 min and the Ki [2] was 0.05 nM. For the same compound, the Time (Mus musculus [12]) was 3 min, the Time (Mus musculus [13]) was 1.4 min and the Ki [3] was 52 nM. For the same compound, the Time (Mus musculus [14]) was 96.7 s, the Time (Mus musculus [15]) was 20.7 min and the Time (Mus musculus [16]) was 0.2 min. It also gave a Ki [4] of 64 nM.

For `CCOC(=O)c1ncn2c1c(C)c(C(=O)NCCOCCOCCNC(=O)OC(C)(C)C)c1ccccc12`, the Ki [1] was 400 nM, the Ki [17] was 12 nM and the Ki [4] was 615 nM.

`CN1C(=O)CN=C(c2ccccc2)c2cc(Cl)ccc21` [DIAZEPAM] gave a Time (Mus musculus [18]) of 61 s, a Time (Mus musculus [19]) of 43.6 s and a Time (Mus musculus [20]) of 174.9 s. The Ki [3] was 3.5 nM and the Time (Mus musculus [21]) was 17.4 s.

With `CCOC(=O)c1ncn2c1c(C)c(C(=O)NCCOCCOCCNC(=O)c1c(C)c3c(C(=O)OCC)ncn3c3ccccc13)c1ccccc12` the Ki [1] was 100 nM, the Ki [17] was 18 nM and the Ki [4] was 129 nM.

With `CCOC(=O)c1ncn2c1c(C)c(C(=O)NCCOCCOCCOCCOCCOCCOCCOCCNC(=O)OC(C)(C)C)c1ccccc12` the Ki [1] was 63 nM, the Ki [17] was 0.66 nM and the Ki [4] was 42 nM.

For `CCOC(=O)c1ncn2c1c(C)c(C(=O)NCCOCCOCCOCCOCCOCCOCCOCCNC(=O)c1c(C)c3c(C(=O)OCC)ncn3c3ccccc13)c1ccccc12`, the Ki [1] was 210 nM, the Ki [17] was 41 nM and the Ki [4] was 245 nM.

`CCOC(=O)c1ncn2c1CN(C)C(=O)c1cc(F)ccc1-2` [FLUMAZENIL] showed a Ki [3] of 1.3 nM.

In the case of `CCOC(=O)c1ncn2c1c(C)c(C(=O)NCCCCCCNC(=O)OC(C)(C)C)c1ccccc12`, the Time (Mus musculus [5]) is reported as 95.5 s, the Time (Mus musculus [6]) is reported as 77.4 s and the Time (Mus musculus [7]) is reported as 5.1 min. The Time (Mus musculus [8]) was 144.7 s, the Ki [1] was 14 nM and the Time (Mus musculus [9]) was 18.1 s. The Time (Mus musculus [10]) was 43.3 min, the Time (Mus musculus [11]) was 0.8 min and the Ki [2] was 65 nM. It also gave a Time (Mus musculus [12]) of 3.3 min, a Time (Mus musculus [13]) of 1.8 min and a Ki [3] of 35 nM. The Time (Mus musculus [14]) was 109.7 s, the Time (Mus musculus [15]) was 24.2 min and the Time (Mus musculus [16]) was 0.2 min. For the same compound, the Ki [4] was 10 nM.

In the case of `CCOC(=O)c1ncn2c1c(C)c(C(=O)NCCCCCCCNC(=O)c1c(C)c3c(C(=O)OCC)ncn3c3ccccc13)c1ccccc12`, the Ki [1] is reported as 74 nM, the Ki [2] is reported as 0.001 nM and the Ki [3] is reported as 12 nM. It also gave a Ki [4] of 74 nM.
